Data from ChEMBL document CHEMBL1201862, “PubChem BioAssay data set” (2004).
Activity calls are given as the source filed them.

What was measured:
[1] = molecular target: Voltage-dependent T-type calcium channel subunit alpha-1H (Homo sapiens, UniProt O95180); format: functional;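 also: channel activity triggered by adding a high calcium stimulation buffer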
[2] = molecular target: 26S proteasome non-ATPase regulatory subunit 14 (Homo sapiens, UniProt O00487); assay: inhibition of proteasome subunit RPN11 – biochemical, fluorescence polarization, uHTS hits, confirmation (AID 602368); format: functional
[3] = molecular target: Induced myeloid leukemia cell differentiation protein Mcl-1 (Homo sapiens, UniProt Q07820); format: functional
[4] = molecular target: T1, RNA-binding protein pos-1 (Caenorhabditis elegans, UniProt G5EF15); assay: inhibitors of POS-1/mex-3 RNA binding, dose response, biochemical, fluorescence polarization (AID 1964);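 also: purified POS-1 fused to maltose binding protein made in E. coli; potency of compounds blocking POS-1 binding to fluorescent RNA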
T1 sequence (G5EF15 whole entry): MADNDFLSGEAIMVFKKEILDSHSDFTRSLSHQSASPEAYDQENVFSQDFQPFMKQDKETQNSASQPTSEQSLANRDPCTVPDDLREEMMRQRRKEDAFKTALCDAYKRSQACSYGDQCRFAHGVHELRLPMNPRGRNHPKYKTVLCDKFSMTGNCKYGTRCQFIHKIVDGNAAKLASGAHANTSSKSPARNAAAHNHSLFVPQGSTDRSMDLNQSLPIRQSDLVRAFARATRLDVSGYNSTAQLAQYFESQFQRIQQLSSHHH

[5] = molecular target: T2, Small ubiquitin-related modifier 1 (Homo sapiens, UniProt P63165); assay: inhibitors of SUMO1 peptide binding, dose response, biochemical, fluorescence polarization, uHTS hits (AID 624382); format: functional; settings: read-out: IC50_Mean
[6] = molecular target: 72 kDa type IV collagenase (Homo sapiens, UniProt P08253); assay: Dose Response validation of uHTS RPN11 inhibitor hits using a MMP-2 Fluorescence assay.; format: functional
[7] = molecular target: Transitional endoplasmic reticulum ATPase (Homo sapiens, UniProt P55072); assay: p97 ATPase inhibitors, dose response, biochemical (AID 1534)
Albumin = Albumin (Bos taurus, UniProt P02769); assay: Counterscreen for inhibitors of T-cell receptor (TCR)-CD3 interaction: Fluorescence-based biochemical high throughput dose response assay to identify inhibitors of T-cell receptor (TCR)-CD3 interaction using a TAMRA-labeled BSA probe.; format: functional
[8] = molecular target: T3, Bifunctional protein GlmU (Mycobacterium tuberculosis, UniProt P9WMN3); assay: Inhibitors of Mycobacterial Glucosamine-1-phosphate acetyl transferase (GlmU). Secondary screen.; set-up: species or system Mycobacterium tuberculosis H37Rv
T3 sequence (P9WMN3 whole entry): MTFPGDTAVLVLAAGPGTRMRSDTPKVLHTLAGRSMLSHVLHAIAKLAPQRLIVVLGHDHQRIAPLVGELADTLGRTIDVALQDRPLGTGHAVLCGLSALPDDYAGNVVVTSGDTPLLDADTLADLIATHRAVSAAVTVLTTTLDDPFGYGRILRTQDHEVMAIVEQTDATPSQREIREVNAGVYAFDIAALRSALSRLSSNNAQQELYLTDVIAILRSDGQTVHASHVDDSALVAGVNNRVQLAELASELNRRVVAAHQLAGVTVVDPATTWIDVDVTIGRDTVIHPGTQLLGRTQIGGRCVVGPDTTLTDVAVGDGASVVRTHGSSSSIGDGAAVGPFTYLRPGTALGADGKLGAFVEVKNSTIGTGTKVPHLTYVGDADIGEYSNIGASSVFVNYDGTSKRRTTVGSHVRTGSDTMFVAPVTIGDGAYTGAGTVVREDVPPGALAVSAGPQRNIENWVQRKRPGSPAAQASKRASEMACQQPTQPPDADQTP

[9] = molecular target: T4, Zinc finger protein mex-5 (Caenorhabditis elegans, UniProt Q9XUB2); assay: MEX-5/TCR-2 RNA interaction inhibitors, dose response, biochemical, C. elegans, fluorescence polarization (AID 1960)
T4 sequence (Q9XUB2 whole entry): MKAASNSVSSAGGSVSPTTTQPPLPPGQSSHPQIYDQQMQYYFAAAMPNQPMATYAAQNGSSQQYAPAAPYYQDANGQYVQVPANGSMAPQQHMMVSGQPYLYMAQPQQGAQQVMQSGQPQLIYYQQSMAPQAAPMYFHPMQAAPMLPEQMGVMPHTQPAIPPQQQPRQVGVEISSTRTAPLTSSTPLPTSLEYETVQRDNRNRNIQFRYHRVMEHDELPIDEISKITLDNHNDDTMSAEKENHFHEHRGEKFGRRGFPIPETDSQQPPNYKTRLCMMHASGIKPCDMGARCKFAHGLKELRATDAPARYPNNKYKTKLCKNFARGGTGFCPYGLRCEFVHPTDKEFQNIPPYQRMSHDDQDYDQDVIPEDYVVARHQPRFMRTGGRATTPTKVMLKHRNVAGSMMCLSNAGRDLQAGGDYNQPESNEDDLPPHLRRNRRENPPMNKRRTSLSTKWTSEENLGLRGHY

[10] = molecular target: Transitional endoplasmic reticulum ATPase (Homo sapiens, UniProt P55072, C522A); assay: C522A mutant p97 ATPase inhibitors, dose response, counter-screen for p97 inhibitor project, biochemical, luminescence (AID 1544)
Prothrombin = Prothrombin (Bos taurus, UniProt P00735); assay: thrombin inhibition, dose response, biochemical, fluorescence polarization, uHTS hits (AID 602369); format: functional
[11] = molecular target: T5, RNA-editing ligase 1, mitochondrial (Trypanosoma brucei brucei, UniProt P86926); assay: TbREL1 ligase inhibitors, dose response, biochemical, fluorescence, Trypanosoma brucei (AID 1117295); format: functional
T5 sequence (P86926 whole entry): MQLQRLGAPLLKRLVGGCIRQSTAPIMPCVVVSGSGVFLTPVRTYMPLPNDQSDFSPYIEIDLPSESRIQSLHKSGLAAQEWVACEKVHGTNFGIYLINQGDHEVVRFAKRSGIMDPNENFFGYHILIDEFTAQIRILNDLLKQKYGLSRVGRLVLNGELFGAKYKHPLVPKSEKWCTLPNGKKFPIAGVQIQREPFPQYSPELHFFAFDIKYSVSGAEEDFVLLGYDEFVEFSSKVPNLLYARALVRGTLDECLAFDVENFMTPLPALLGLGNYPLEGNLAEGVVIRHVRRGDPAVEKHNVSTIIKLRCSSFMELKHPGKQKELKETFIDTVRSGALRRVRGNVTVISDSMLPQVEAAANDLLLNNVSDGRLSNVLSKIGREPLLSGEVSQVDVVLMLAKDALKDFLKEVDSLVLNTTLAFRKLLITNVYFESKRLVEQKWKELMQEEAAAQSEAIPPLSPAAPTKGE

[12] = molecular target: T2, Small ubiquitin-related modifier 1; assay: inhibitors of SUMO1 partner interactions, dose response, biochemical, FRET (AID 624383); format: functional; settings: read-out: IC50_Mean
Aminopeptidase N = molecular target: T6, Aminopeptidase N (Plasmodium falciparum FcB1/Columbia, UniProt O96935); assay: P. falciparum M1AAP inhibitors, biochemical, fluorogenic H-Leu-NHMec substrate, 1536-well (AID 1445); set-up: species or system Plasmodium falciparum 3D7, 3D7
T6 sequence (O96935 whole entry): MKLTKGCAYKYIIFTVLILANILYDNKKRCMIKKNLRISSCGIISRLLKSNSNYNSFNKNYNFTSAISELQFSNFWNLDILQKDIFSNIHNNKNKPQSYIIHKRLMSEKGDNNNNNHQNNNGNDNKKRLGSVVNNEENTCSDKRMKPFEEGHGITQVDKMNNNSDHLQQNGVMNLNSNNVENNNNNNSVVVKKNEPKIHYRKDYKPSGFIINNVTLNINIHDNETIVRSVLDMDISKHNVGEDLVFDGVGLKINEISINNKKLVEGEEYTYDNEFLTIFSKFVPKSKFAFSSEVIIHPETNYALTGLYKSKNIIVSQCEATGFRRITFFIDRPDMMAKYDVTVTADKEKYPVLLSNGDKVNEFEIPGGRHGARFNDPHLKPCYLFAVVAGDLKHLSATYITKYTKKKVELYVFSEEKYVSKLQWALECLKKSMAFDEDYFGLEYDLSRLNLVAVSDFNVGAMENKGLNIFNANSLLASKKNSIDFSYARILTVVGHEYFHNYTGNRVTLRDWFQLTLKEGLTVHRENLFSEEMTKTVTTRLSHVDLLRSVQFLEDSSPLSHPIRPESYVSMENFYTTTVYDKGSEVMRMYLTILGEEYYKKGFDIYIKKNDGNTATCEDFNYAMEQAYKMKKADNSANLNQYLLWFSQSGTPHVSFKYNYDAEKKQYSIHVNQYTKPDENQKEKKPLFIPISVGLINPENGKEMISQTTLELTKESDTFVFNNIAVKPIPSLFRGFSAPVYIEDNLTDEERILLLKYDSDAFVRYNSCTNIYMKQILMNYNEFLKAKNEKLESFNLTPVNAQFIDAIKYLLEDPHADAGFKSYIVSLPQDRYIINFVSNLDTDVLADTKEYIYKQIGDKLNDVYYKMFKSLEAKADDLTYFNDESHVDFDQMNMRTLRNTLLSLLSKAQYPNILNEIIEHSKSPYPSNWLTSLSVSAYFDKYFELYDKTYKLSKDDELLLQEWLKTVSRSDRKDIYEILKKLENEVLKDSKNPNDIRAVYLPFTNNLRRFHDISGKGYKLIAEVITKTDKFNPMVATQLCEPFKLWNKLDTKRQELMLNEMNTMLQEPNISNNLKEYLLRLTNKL

CAAX prenyl protease 2 = molecular target: T7, CAAX prenyl protease 2 (Saccharomyces cerevisiae S288c, UniProt Q03530); format: biochemical
T7 sequence (Q03530 whole entry): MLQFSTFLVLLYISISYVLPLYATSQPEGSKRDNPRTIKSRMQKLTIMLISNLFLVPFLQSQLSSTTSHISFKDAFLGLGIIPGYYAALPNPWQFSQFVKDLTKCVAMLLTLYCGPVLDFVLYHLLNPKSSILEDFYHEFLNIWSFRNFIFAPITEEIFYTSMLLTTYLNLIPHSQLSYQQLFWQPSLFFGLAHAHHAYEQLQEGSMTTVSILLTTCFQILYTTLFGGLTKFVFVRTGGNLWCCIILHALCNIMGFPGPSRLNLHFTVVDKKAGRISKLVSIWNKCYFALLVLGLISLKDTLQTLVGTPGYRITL

Trypsin = Trypsin (Sus scrofa, UniProt P00761); assay: porcine trypsin inhibitors, dose response, selectivity assay for Rce1 protease inhibitor project, biochemical, quenched peptide fluorescence, cherry-pick (AID 488789)
Hexokinase HKDC1 = molecular target: T8, Hexokinase HKDC1 (Homo sapiens, UniProt Q2TB90); assay: HKDC1 hexokinase inhibitors, dose response, biochemical, W721R variant (AID 504729); format: functional
T8 sequence (Q2TB90 whole entry): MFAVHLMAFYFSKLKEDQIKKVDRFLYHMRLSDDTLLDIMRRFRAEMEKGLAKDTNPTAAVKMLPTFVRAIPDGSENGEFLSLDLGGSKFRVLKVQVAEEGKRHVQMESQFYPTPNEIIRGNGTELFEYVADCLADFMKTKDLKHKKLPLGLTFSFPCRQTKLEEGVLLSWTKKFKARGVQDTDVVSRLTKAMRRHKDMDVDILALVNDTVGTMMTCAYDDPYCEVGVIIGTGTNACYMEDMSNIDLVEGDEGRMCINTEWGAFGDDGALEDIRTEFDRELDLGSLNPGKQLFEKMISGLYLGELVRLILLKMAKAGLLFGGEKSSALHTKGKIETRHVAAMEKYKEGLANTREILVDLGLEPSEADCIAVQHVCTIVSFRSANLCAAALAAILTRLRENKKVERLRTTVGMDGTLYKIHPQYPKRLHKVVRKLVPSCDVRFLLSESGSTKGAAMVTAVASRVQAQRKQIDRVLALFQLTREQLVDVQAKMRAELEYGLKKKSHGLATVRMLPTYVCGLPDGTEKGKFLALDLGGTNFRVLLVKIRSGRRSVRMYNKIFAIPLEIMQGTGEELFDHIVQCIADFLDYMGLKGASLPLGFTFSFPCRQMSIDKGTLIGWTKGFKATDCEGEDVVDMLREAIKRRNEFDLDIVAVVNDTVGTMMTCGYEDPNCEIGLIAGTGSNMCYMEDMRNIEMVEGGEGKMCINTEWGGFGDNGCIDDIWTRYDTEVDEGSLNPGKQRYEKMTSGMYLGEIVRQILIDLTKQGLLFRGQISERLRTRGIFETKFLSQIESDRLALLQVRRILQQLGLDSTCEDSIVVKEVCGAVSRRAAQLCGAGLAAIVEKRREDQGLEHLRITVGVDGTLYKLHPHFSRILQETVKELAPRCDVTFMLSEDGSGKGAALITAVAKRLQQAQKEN

[13] = THP-1 cell cytotoxicity, dose response, cytotoxicity control for Vif-APOBEC3G degradation inhibitor project, THP-1 cells (AID 1117359); format: functional; settings: Human immunodeficiency virus 1, THP-1
Beta-galactosidase = Beta-galactosidase (Escherichia coli, UniProt Q8VNN2); assay: beta-galactosidase enzyme inhibitors and activators, dose response, artefact control for CCR6 antagonist project, biochemical, E. coli enzyme, set 3 (AID 504712); format: functional
[14] = molecular target: Glucose-6-phosphate 1-dehydrogenase (Homo sapiens, UniProt P11413); assay: human G6PD enzyme inhibitors, dose response, selectivity assay for P. falciparum G6PD inhibitor project, biochemical, fluorescence (AID 504792); format: functional
Genome polyprotein = Genome polyprotein (dengue virus type 2, UniProt P29990); assay: Dengue-2 NS5 methyltransferase inhibitors, primary screen, biochemical, confirmation dose response (AID 588689); format: functional
Chain of Genome polyprotein (P29990 2492-3391 limits assumed): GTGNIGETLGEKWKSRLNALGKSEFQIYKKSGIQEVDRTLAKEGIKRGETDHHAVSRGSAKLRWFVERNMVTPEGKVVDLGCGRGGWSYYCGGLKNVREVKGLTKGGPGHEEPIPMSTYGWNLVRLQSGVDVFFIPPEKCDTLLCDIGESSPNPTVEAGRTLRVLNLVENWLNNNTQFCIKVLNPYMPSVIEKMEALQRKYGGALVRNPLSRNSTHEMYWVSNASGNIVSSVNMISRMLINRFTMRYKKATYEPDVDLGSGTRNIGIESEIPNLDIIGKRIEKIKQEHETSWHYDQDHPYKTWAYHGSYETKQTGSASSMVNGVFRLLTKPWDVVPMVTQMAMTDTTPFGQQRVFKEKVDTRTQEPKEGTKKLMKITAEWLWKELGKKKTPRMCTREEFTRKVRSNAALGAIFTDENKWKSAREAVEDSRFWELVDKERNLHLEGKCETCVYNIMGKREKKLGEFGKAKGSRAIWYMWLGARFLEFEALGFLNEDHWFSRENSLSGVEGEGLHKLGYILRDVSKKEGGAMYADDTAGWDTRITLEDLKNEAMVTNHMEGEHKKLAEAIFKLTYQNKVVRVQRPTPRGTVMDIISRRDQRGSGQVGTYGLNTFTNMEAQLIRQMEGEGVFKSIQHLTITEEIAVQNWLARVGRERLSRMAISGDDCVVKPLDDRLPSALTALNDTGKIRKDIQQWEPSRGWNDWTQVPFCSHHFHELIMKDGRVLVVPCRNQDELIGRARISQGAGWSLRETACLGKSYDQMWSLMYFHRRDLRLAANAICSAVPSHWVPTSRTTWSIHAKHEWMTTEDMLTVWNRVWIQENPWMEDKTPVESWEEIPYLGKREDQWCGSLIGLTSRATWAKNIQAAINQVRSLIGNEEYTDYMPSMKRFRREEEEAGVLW

T2 sequence (P63165 whole entry): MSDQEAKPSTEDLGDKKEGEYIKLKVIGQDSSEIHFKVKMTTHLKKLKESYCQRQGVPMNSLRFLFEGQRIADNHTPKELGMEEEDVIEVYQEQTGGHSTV
Chain of Transitional endoplasmic reticulum ATPase (Homo sapiens, UniProt P55072, C522A) (P55072 2-806 C522A limits assumed): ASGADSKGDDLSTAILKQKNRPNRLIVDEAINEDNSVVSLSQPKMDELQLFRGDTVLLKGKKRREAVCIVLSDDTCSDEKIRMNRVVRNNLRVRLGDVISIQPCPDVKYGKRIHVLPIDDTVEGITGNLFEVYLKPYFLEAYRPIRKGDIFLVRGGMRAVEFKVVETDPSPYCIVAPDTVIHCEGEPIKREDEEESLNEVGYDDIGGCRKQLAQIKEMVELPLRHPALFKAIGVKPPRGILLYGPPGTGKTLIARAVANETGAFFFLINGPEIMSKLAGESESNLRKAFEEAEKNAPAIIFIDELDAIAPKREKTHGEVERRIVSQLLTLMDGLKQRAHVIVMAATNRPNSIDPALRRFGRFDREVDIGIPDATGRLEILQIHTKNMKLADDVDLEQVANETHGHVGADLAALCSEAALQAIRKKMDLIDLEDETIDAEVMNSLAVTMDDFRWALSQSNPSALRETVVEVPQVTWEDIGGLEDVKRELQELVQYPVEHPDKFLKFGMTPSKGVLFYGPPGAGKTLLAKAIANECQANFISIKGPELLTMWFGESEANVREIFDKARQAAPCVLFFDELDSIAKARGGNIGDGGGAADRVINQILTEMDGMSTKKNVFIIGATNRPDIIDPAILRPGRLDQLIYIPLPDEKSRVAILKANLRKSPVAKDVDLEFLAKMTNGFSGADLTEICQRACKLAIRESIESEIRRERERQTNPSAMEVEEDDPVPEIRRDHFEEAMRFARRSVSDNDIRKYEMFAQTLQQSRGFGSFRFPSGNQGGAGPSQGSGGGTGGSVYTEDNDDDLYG
Chain of Voltage-dependent T-type calcium channel subunit alpha-1H (O95180 whole entry): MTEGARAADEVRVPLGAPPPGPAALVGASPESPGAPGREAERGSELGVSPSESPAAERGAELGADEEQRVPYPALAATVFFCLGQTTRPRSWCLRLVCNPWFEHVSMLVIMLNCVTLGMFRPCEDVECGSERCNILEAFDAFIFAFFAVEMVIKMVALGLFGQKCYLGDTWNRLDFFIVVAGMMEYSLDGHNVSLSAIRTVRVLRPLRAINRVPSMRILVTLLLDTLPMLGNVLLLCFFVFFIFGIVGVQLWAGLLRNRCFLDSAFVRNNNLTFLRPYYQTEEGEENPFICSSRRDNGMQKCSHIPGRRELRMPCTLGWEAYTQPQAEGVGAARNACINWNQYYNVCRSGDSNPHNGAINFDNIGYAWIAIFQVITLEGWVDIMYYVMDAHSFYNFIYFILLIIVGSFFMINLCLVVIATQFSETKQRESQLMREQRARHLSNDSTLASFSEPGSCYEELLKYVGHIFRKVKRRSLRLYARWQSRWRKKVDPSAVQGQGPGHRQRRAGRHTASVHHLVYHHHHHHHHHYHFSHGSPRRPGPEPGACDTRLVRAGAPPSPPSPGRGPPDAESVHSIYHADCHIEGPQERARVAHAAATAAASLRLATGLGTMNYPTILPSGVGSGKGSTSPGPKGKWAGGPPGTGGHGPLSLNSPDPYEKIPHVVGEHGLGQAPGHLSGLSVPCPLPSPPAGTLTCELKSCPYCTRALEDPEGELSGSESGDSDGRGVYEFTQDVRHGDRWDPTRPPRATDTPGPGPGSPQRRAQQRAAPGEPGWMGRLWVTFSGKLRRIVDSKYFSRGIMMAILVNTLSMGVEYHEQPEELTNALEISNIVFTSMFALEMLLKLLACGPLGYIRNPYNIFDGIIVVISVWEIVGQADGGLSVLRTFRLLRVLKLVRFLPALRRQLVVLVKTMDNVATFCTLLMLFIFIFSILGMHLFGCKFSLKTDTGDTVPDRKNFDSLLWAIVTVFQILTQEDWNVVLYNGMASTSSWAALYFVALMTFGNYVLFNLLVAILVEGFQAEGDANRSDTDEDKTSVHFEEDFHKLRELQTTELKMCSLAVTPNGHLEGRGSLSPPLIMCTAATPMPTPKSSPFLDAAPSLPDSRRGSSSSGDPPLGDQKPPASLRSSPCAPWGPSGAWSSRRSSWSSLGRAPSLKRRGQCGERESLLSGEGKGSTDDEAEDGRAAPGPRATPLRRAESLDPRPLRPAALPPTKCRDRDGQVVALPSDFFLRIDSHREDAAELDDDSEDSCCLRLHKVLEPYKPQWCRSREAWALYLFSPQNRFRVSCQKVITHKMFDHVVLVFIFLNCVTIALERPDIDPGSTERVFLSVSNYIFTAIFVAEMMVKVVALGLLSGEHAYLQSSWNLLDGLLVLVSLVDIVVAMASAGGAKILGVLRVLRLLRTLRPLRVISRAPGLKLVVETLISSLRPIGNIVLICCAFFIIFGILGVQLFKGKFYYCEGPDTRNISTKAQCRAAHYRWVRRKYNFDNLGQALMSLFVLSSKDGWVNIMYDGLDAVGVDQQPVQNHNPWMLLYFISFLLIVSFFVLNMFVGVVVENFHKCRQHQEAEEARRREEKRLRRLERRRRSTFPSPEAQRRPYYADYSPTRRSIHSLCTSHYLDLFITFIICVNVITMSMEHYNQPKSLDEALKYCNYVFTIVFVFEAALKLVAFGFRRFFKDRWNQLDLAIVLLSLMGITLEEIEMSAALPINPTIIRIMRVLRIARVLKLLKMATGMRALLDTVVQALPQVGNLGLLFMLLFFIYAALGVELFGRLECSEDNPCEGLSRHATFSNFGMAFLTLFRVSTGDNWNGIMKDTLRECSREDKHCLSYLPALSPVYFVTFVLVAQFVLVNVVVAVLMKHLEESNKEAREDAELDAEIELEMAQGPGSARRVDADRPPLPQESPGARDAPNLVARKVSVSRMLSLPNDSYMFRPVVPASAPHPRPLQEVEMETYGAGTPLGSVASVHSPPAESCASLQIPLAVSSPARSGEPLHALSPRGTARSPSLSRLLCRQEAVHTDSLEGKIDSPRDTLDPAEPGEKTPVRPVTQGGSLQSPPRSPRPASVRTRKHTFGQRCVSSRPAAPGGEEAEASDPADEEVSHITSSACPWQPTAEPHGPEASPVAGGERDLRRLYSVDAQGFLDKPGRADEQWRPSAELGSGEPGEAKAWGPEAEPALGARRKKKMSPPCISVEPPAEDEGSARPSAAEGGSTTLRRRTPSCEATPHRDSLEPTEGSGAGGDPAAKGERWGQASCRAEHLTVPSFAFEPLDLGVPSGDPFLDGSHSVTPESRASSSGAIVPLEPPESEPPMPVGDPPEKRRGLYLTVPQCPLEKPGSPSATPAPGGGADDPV
Chain of Transitional endoplasmic reticulum ATPase (Homo sapiens, UniProt P55072) (P55072 whole entry): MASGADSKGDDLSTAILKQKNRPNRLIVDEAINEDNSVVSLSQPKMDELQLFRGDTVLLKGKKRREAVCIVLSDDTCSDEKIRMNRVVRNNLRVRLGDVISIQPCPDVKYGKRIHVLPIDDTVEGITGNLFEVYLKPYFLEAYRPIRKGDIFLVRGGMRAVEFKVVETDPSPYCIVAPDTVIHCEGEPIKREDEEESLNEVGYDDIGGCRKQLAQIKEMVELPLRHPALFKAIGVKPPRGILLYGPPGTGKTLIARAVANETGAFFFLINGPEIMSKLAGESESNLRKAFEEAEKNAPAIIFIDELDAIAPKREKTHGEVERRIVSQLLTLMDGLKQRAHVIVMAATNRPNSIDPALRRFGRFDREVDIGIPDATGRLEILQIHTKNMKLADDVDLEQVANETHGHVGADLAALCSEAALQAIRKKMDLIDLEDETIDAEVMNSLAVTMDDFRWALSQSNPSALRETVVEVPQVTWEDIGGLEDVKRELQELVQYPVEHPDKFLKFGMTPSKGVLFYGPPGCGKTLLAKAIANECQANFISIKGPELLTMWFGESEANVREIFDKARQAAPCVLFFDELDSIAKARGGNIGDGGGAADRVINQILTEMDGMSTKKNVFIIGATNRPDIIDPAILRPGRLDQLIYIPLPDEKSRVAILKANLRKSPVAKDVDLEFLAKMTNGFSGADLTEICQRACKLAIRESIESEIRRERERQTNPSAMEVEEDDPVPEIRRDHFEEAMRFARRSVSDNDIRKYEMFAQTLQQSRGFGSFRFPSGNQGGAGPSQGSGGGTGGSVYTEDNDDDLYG

CCCOc1cc(C)c(S(=O)(=O)n2ccc(C)n2)cc1C
active: EC50 [1] 5.47 µM

Cc1n[nH]c(S/C(=C\c2ccc(-c3ccc(C(=O)O)c(Cl)c3)o2)C(=O)O)n1
inactive: IC50 [5] > 66.6 µM | IC50 [6] > 100 µM | IC50 (Albumin) > 94.1 µM | IC50 [11] 22.9 µM
active: IC50 [2] 9.04 µM | IC50 [3] 2.35 µM | EC50 [4] 1.76 µM | IC50 [8] 61.9 µM | EC50 [9] 1.38 µM | IC50 (Prothrombin) 9.79 µM | IC50 [12] 13.1 µM | IC50 (Aminopeptidase N) 11.3 µM
> 50 µM (not active): IC50 [7] | IC50 [10]

Cc1cc(-c2ccccc2)n2nc(C)c(C#N)c2n1
active: AC50 (CAAX prenyl protease 2) 15.5 µM | AC50 (Trypsin) 3.3 µM

COC1=C(OC)C(=O)C(Sc2ccc3ccccc3c2)=CC1=O
active: IC50 (Hexokinase HKDC1) 3.33 µM | CC50 [13] > 40 µM | IC50 [14] 18.7 µM | IC50 (Genome polyprotein) 5.09 µM
inactive: IC50 (Beta-galactosidase) > 66.6 µM
